Like-named read-outs stand apart in the source and are kept apart here.
Legend:
[1] = molecular target: T1, HIV protease (Human immunodeficiency virus type 1 group M subtype B, UniProt P04585); assay: biochemical; settings: read-out: IC50 (concentration causing 50% inhibition of HIV protease)
T1 construct: an HIV-encoded enzyme known as HIV protease
Text: The procedure is based on the capacity of the test compound to inhibit enzymatic cleavage by HIV protease of a decapeptide (the substrate) having an amino acid sequence which includes a known HIV protease cleavage site of a HIV polyprotein; see H. G. Krausslich et al., Proc. Natl. Acad. Sci. USA, 86, 807 (1989).
Anderson, S. Rakhit and C. Yoakim in the European patent application 443 560, published Aug. 28, 1991.

[2] = system: HIV (H9/HTLV-IIIB stock) in C8166 cells; assay: Cell culture assay: inhibition of syncytia formation in HIV-infected C8166 cells (antiviral, anti-HIV effect); assay type: cell-based, HIV (HTLV-IIIB); human T4 cell line; settings: Human immunodeficiency virus 1; C8166 cells; H9/HTLV-IIIB, 50 times TCID50; 72 h, 37°; read-out: EC50 (concentration causing 50% inhibition of syncytia formation)
Text: Typical of such procedures are those described by S. Harada and N. Yamamoto, Jpn. J. Cancer Res. (Gann), 76, 432 (1985), and S. Harada et al., Science, 229, 563 (1985). An assay based on the latter procedures is described in the examples hereinafter.
In addition, Tables 1 to 8 list the results for exemplified compounds of formula 1 when assayed for antiviral (anti-HIV) effects according to the following protocol which is based on a cell culture assay previously described by Harada et al., supra. Transformed cells are used because of the rapidity with which HIV will replicate in the cells.
1. The test compound is dissolved in dimethylsulfoxide to a concentration of 5 mg/mL. The resultant solution .can be stored at 4° until use.
2. The resultant solution is diluted in RPMI 1640 (Gibco Laboratories, St. Lawrence, Mass., USA) to four times (4×) the final concentration which is to be tested. Once diluted in RPMI 1640, the solution is used in the cell culture assay within 4 h.
3. The latter solution (50 μL) is added to triplicate wells of a 96 well flat bottomed microtiter plate. RPMI (50 μL) also is added to control wells.
4. C8166 cells (5×10^4) in 50 μL of HEPES-buffered RPMI 1640 (pH=7.2), 10% heat inactivated fetal calf serum (FCS), […] gentamicin (complete media) are added to all wells.
5. Fifty times TCID50 of H9/HTLV-IIIB stock (stored in liquid nitrogen as cell culture supernatant in 50% FCS) in 100 μL of complete media is added to all wells. The infectious titer of the virus stocks is as previously determined by end point dilution on C8166 cells. The titer of stocks are stable for 6-12 months when stored at -193°.
6. Microtiter plates are then placed on level shelves of a 37°, 5% CO2 humidified incubator for 72 h.
7. Plates are then removed and centers of syncytia are counted in each well by low power phase contrast light microscopy. […] Control wells should have between 25 and 75 centers of syncytia per well.
8. Percent inhibition of syncytia formation is calculated by the formula: [formula]
The concentration of the test compound which causes a 50% inhibition of syncytia formation, i.e. the EC50, is determined by using the technique of serial dilution of the working solution at step 3 and graphically plotting the observed percent inhibition of syncytia formation against the various concentrations of the test compound.
In the following tables, assay results are listed for the exemplified compounds from the aforementioned recombinant HIV protease HPLC assay under the heading IC50 (nM) and from the cell culture assay under the heading EC50 (nM). Note that for some of the compounds listed in tables, the EC50 's have not been determined (ND).

[3] = recombinant HIV protease, decapeptide substrate, HPLC assay

IC50 [1, 3] | EC50 [2] | IC50 [1] | Compound
0.1 µM |  |  | CCC(CC)NC(=O)C[C@@H](C(=O)NC[C@@H](O)[C@H](Cc1ccccc1)NC(=O)[C@@H](NC(=O)OC(C)(C)C)C(C)(C)C)C(C)(C)C [Entry 1]
0.09 µM |  |  | CCC(CC)NC(=O)C[C@@H](C(=O)NC[C@@H](O)[C@H](Cc1ccccc1)NC(=O)[C@H](CC(=O)O)NC(=O)OC(C)(C)C)C(C)(C)C [Entry 2]
0.088 µM |  |  | CCC(CC)NC(=O)C[C@@H](C(=O)NC[C@@H](O)[C@H](Cc1ccccc1)NC(=O)[C@H](CC(N)=O)NC(=O)CCN1CCCCC1)C(C)(C)C [Entry 3]
0.08 µM |  |  | CCC(CC)NC(=O)C[C@@H](C(=O)NC[C@@H](O)[C@H](Cc1ccccc1)NC(=O)[C@@H](NC(=O)OC(C)(C)C)[C@@H](C)C(=O)OCc1ccccc1)C(C)(C)C [Entry 4]
0.032 µM |  |  | CCC(CC)NC(=O)C[C@@H](C(=O)NC[C@@H](O)[C@H](Cc1ccccc1)NC(=O)[C@H](CC(N)=O)NC(=O)C1Cc2ccccc2CN1)C(C)(C)C (stereo partly shown) [Entry 5]
0.027 µM | 0.42 µM |  | CCC(CC)NC(=O)C[C@@H](C(=O)NC[C@@H](O)[C@H](Cc1ccccc1)NC(=O)[C@H](CO)NC(=O)c1ccc2ccccc2n1)C(C)(C)C [Entry 6]
0.02 µM |  |  | CCC(CC)NC(=O)C[C@@H](C(=O)NC[C@@H](O)[C@H](Cc1ccccc1)NC(=O)[C@H](CC(N)=O)NC(=O)c1nccc2ccccc12)C(C)(C)C [Entry 7]
0.019 µM |  |  | CCC(CC)NC(=O)C[C@@H](C(=O)NC[C@@H](O)[C@H](Cc1ccccc1)NC(=O)[C@H](CCC(N)=O)NC(=O)OCc1ccccc1)C(C)(C)C [Entry 8]
0.015 µM | 1.9 µM |  | CCC(CC)NC(=O)C[C@@H](C(=O)NC[C@@H](O)[C@H](Cc1ccccc1)NC(=O)[C@H](CC(N)=O)NC(=O)CCc1ccccc1)C(C)(C)C [Entry 9]
0.015 µM | 0.27 µM |  | CCC(CC)NC(=O)C[C@@H](C(=O)NC[C@@H](O)[C@H](Cc1ccccc1)NC(=O)[C@H](CC(N)=O)NC(=O)c1cccc2cccnc12)C(C)(C)C [Entry 10]
0.014 µM | 0.66 µM |  | CCC(CC)NC(=O)C[C@@H](C(=O)NC[C@@H](O)[C@H](Cc1ccccc1)NC(=O)[C@H](CC(N)=O)NC(=O)c1cc2ccccc2n1C)C(C)(C)C [Entry 11]
0.013 µM |  |  | CCC(CC)NC(=O)C[C@@H](C(=O)NC[C@@H](O)[C@H](Cc1ccccc1)NC(=O)[C@H](CC(N)=O)NC(=O)CCCCc1ccccc1)C(C)(C)C [Entry 12]
0.012 µM | 1.9 µM |  | CCC(CC)NC(=O)C[C@@H](C(=O)NC[C@@H](O)[C@H](Cc1ccccc1)NC(=O)[C@H](C(C)C)N(C)C(=O)OCc1ccccc1)C(C)(C)C [Entry 13]
0.011 µM |  |  | CCC(CC)NC(=O)C[C@@H](C(=O)NC[C@@H](O)[C@H](Cc1ccccc1)NC(=O)[C@H](CC(N)=O)NC(=O)NCc1ccccc1)C(C)(C)C [Entry 14]
0.009 µM | 0.45 µM |  | CCC(CC)NC(=O)C[C@@H](C(=O)NC[C@@H](O)[C@H](Cc1ccccc1)NC(=O)[C@H](CC(N)=O)NC(=O)c1ccnc2ccccc12)C(C)(C)C [Entry 15]
0.007 µM |  |  | CCC(CC)NC(=O)C[C@@H](C(=O)NC[C@@H](O)[C@H](Cc1ccccc1)NC(=O)[C@@H](NC(=O)OC(C)(C)C)[C@@H](C)C(=O)O)C(C)(C)C [Entry 16]
0.007 µM | 1.4 µM |  | CCC(CC)NC(=O)C[C@@H](C(=O)NC[C@@H](O)[C@H](Cc1ccccc1)NC(=O)[C@H](CC(N)=O)NC(=O)C=Cc1ccccc1)C(C)(C)C [Entry 17]
0.005 µM | 0.22 µM |  | CCC(CC)NC(=O)C[C@@H](C(=O)NC[C@@H](O)[C@H](Cc1ccccc1)NC(=O)[C@H](CC(N)=O)NC(=O)c1cc2ccccc2cn1)C(C)(C)C [Entry 18]
0.005 µM |  |  | CCC(CC)NC(=O)C[C@@H](C(=O)NC[C@@H](O)[C@H](Cc1ccccc1)NC(=O)[C@H](CC(N)=O)NC(=O)CNc1ccccc1)C(C)(C)C [Entry 19]

IC50 [1, 3] | EC50 [2] | IC50 [1] | Compound
0.005 µM | 0.48 µM |  | CCC(CC)NC(=O)C[C@@H](C(=O)NC[C@@H](O)[C@H](Cc1ccccc1)NC(=O)[C@H](CC(N)=O)NC(=O)OCc1ccccc1)C(C)(C)C [Entry 20]
0.005 µM |  |  | CCC(CC)NC(=O)C[C@@H](C(=O)NC[C@@H](O)[C@H](Cc1ccccc1)NC(=O)[C@@H](NC(=O)c1ccc2ccccc2n1)[C@@H](C)C(=O)O)C(C)(C)C [Entry 22]
0.004 µM |  |  | CCC(CC)NC(=O)C[C@@H](C(=O)NC[C@@H](O)[C@H](Cc1ccccc1)NC(=O)[C@H](CC(N)=O)NC(=O)C1Cc2ccccc2CN1)C(C)(C)C (stereo partly shown) [Entry 24]
 |  | 0.003 µM | CCC(CC)NC(=O)C[C@@H](C(=O)NC[C@@H](O)[C@H](Cc1ccccc1)NC(=O)[C@H](CC(N)=O)NC(=O)C1Cc2ccccc2N1)C(C)(C)C (stereo partly shown) [Entry 30]
0.003 µM |  |  | CCC(CC)NC(=O)C[C@@H](C(=O)NC[C@@H](O)[C@H](Cc1ccccc1)NC(=O)[C@@H](NC(=O)c1ccc2ccccc2n1)C1(C(=O)O)CCCC1)C(C)(C)C [Entry 33]
0.002 µM |  |  | CCC(CC)NC(=O)C[C@@H](C(=O)NC[C@@H](O)[C@H](Cc1ccccc1)NC(=O)[C@H](CC(N)=O)NC(=O)c1ccc2ncccc2c1)C(C)(C)C [Entry 38]
0.002 µM |  |  | CCC(CC)NC(=O)C[C@@H](C(=O)NC[C@@H](O)[C@H](Cc1ccccc1)NC(=O)[C@H](CC(N)=O)NC(=O)c1cnc2ccccc2c1)C(C)(C)C [Entry 39]
0.051 µM |  |  | CCC(CC)OC(=O)CC(C(=O)NC[C@@H](O)[C@H](Cc1ccccc1)NC(=O)[C@H](CC(N)=O)NC(=O)OCc1ccccc1)C(C)(C)C (stereo partly shown) [Entry 47]
0.032 µM |  |  | CCC(CC)NC(=O)CC(C(=O)NC[C@@H](O)[C@H](Cc1ccccc1)NC(=O)[C@H](CC(N)=O)NC(=O)OCc1ccccc1)C(C)C (stereo partly shown) [Entry 48]
0.009 µM |  |  | CCC(CC)NC(=O)CC(C(=O)NC[C@@H](O)[C@H](Cc1ccccc1)NC(=O)[C@H](CC(N)=O)NC(=O)c1ccc2ccccc2n1)C(C)C (stereo partly shown) [Entry 50]
0.05 µM |  |  | CCC(CC)NC(=O)C(CC(=O)NC[C@@H](O)[C@H](Cc1ccccc1)NC(=O)[C@@H](NC(=O)OCc1ccccc1)C(C)C)CC(C)(C)C (stereo partly shown) [Entry 54]
0.066 µM |  |  | CC(C)[C@H](NC(=O)OCc1ccccc1)C(=O)N[C@@H](Cc1ccccc1)[C@H](O)CNC(=O)C1CCCCC1C(=O)NCC(C)(C)C (stereo partly shown) [Entry 55]
0.029 µM |  |  | CCCC(CCC)NC(=O)C1CCCCC1C(=O)NC[C@@H](O)[C@H](Cc1ccccc1)NC(=O)[C@@H](NC(=O)OCc1ccccc1)C(C)C (stereo partly shown) [Entry 56]
0.014 µM |  |  | CCC(CC)NC(=O)C1CCCCC1C(=O)NC[C@@H](O)[C@H](Cc1ccccc1)NC(=O)[C@@H](NC(=O)OCc1ccccc1)C(C)C (stereo partly shown) [Entry 57]
0.046 µM |  |  | CC(C)OC(=O)C[C@@H](C(=O)NC[C@@H](O)[C@H](Cc1ccccc1)NC(=O)[C@@H](NC(=O)c1ccc2ccccc2n1)[C@@H](C)O)C(C)(C)C [Entry 58, 3(R)-tert-butyl-4-{2(R)-hydroxy-4-phenyl-3(S)-{[N-(2-quinolylcarbonyl)threonyl]-amino}butylamino}-4-oxobutyric acid isopropyl ester]
0.029 µM |  |  | CCC(CC)NC(=O)C[C@H](C(=O)NC[C@@H](O)[C@H](Cc1ccccc1)NC(=O)[C@@H](NC(=O)OCc1ccccc1)C(C)(C)C)C(C)(C)C [Entry 60]
0.013 µM |  |  | CCC(CC)NC(=O)[C@H](CC(=O)NC[C@@H](O)[C@H](Cc1ccccc1)NC(=O)[C@@H](NC(=O)OCc1ccccc1)C(C)C)C(C)(C)C [Entry 61]
0.061 µM |  |  | CCC(CC)NC(=O)C[C@@H](C(=O)NC[C@@H](O)[C@H](Cc1ccc(O)cc1)NC(=O)[C@@H](NC(=O)c1ccc2ccccc2n1)[C@@H](C)O)C(C)(C)C [Entry 62, N^1-(1-ethylpropyl)-N^4 -{3(S)-{[N-(2-quinolylcarbonyl)-threonyl]amino}-2(R)-hydroxy-4-(4-hydroxyphenyl)butyl}-3(R)-tert-butylbutanediamide]

From patent US5545640A, “Protease inhibiting succinic acid derivatives” (Bio-Mega/Boehringer Ingeleheim Research Inc., priority 1995, dated 1996)
